Values quoted from earlier work, collected in publication PMC2728785 (Biomaterials, 2009).

Key:
[1] = versus unmodified bovine hemoglobin

## CC(C)(S)CN [1-amino-2-methyl-2-propanethiol]
Disulfide bond prepared from the sterically hindered linker
  degradation rate relative to the less hindered cysteamine linker: about 100 times slower

## NCCS [cysteamine linker, cysteamine]
Disulfide bond prepared from the linker
  t1/2 of GSH-dependent disulfide degradation: 3 min

## 12 copies of a 5 kDa PEG conjugated to bovine hemoglobin: PEGylated bovine hemoglobin from the literature
[1]
  increase of blood half-life: 14 factor
  increase of systemic availability: 8 factor
